Converted amounts (≈) assume the structure as drawn. “Also recorded” adds a separate entry of the source.
How the values were obtained:
[1] = Dissolution study in simulated intestinal fluid (FaSSIF V2); assay type: physicochemical; settings: from four minutes onwards; 50 ml FaSSIF V2, pH 6.5, 37° C.; FIG. 12
From the text: For BCS class IV drugs, such as olaparib, where both solubility and permeability are limited, the rate of dissolution of the drug form used can be the controlling factor in the overall absorption and thus the bioavailability of a drug. This becomes even more influential as the dose of a drug increases. Given the high dose of olaparib needed in its current marketed indications it is likely that a high dose may be needed for use in alternative conditions, thus finding a crystalline form of olaparib that has a high dissolution rate is important. A study was, therefore, carried out to examine the rate of dissolution of the 2:3 olaparib oxalic acid cocrystal, 1:1 olaparib oxalic acid cocrystal, and 2:1 olaparib oxalic acid compared with the 1:1 olaparib urea cocrystal of CN 105753789 and the pure crystalline olaparib form A. The dissolution study was carried out using 50 ml simulated intestinal fluid (FaSSIF V2) at pH 6.5 (37° C.) using a quantity of each olaparib form equivalent to 25 mg olaparib. […] Detection and quantification of olaparib was performed by in-situ UV-spectroscopy using a fibre-optic probe, allowing instantaneous data collection from the point of sample introduction. UV absorption data was converted to mg/ml (±0.2 mg/ml) using a previously determined pH dependent molar extinction coefficients to quantitate the amount of dissolved drug.

[2] = Solid-state stability study, ambient conditions (6 months); assay type: physicochemical; settings: clear glass vial
Procedure: A second stability study was carried out where 50 mg each of the 2:3 olaparib oxalic acid cocrystal, 1:1 olaparib oxalic acid cocrystal, and 2:1 olaparib oxalic acid cocrystal were separately placed in a clear glass vial which was then stored under ambient conditions for 6 months. After this time, all the cocrystals remained as white solids with no signs of colour change.

[3] = Solid-state stability study, accelerated conditions (40° C./75% RH, 4 months); assay type: physicochemical; settings: for stability to polymorph conversion or hydrate formation on long storage (summary of Tables 4 and 5): 4 months accelerated conditions and 6 months ambient conditions; for Appearance / XRPD analysis: 40° C./75% RH - 4 months, sealed container
Procedure: A study was carried out to examine the physical stability of the olaparib oxalic acid cocrystals with respect to solid form conversion or signs of decomposition over time under both ambient and accelerated conditions. 50 mg each of the 2:3 olaparib oxalic acid cocrystal, 1:1 olaparib oxalic acid cocrystal, and 2:1 olaparib oxalic acid cocrystal were separately placed in a sealed container at 40° C. and 75% relative humidity and stored under these conditions for 4 months. After this time, all samples remained as white solids with no signs of deliquescence.

[4] = Gravimetric Vapour Sorption (GVS) analysis; assay type: physicochemical; settings: for polymorphic form conversion or hydrate formation under raised relative humidity levels: GVS; for moisture reversibly adsorbed (GVS): across the 0-90% relative humidity range at 25° C. under nitrogen; for XRPD analysis post GVS analysis: at both 0% RH and 90% RH
Procedure: Gravimetric Vapor Isotherm (GVS) Analysis: Sorption isotherms were obtained using a Hiden Isochema moisture sorption analyser (model IGAsorp), controlled by IGAsorp Systems Software V6.50.48. The sample was maintained at a constant temperature (25° C.) by the instrument controls. The humidity was controlled by mixing streams of dry and wet nitrogen, with a total flow of 250 ml·min^−1. The instrument was verified for relative humidity content by measuring three calibrated Rotronic salt solutions (10-50-88%). The weight change of the sample was monitored as a function of humidity by a microbalance (accuracy +/−0.005 mg). A defined amount of sample was placed in a tared mesh stainless steel basket under ambient conditions. The sample was held at 50% RH for ˜60 minutes and then the initial desorption cycle was initiated. A full experimental cycle typically consisted of three scans (desorption, sorption and desorption) at a constant temperature (25° C.) and 10% RH intervals over a 0-90% range (60 minutes for each humidity level). Data analysis was performed in Microsoft Excel. […] XRPD analysis at both 0% RH and 90% RH post GVS analysis confirmed that the cocrystal was unchanged. […]

[5] = pH independent; cited from earlier work
[6] = EMA/CHMP/789139/2014; low solubility and low permeability; cited from earlier work

Appearance [2]	XRPD analysis [2]	Appearance [3]	XRPD analysis [3]	moisture reversibly adsorbed (GVS) [4]	XRPD analysis post GVS analysis [4]	SMILES	stability to polymorph conversion or hydrate formation on long storage (summary of Tables 4 and 5) [3]	polymorphic form conversion or hydrate formation under raised relative humidity levels ([4]; 0-90% RH, 25° C.)	other results
No change	No change	No change	No change			O=C(O)C(=O)O.O=C(c1cc(Cc2n[nH]c(=O)c3ccccc23)ccc1F)N1CCN(C(=O)C2CC2)CC1 [1:1 olaparib oxalic acid cocrystal]	stable to polymorph conversion or hydrate formation		
		No change	No change	0.23 % w/w	unchanged	O=C(O)C(=O)O.O=C(O)C(=O)O.O=C(O)C(=O)O.O=C(c1cc(Cc2n[nH]c(=O)c3ccccc23)ccc1F)N1CCN(C(=O)C2CC2)CC1.O=C(c1cc(Cc2n[nH]c(=O)c3ccccc23)ccc1F)N1CCN(C(=O)C2CC2)CC1 [2:3 olaparib oxalic acid cocrystal]	stable to polymorph conversion or hydrate formation	does not show any polymorphic form conversion or hydrate formation	hygroscopicity ([4]; 0-90% RH, 25° C.): not hygroscopic
No change	No change	No change	No change	0.59 % w/w	unchanged	O=C(O)C(=O)O.O=C(c1cc(Cc2n[nH]c(=O)c3ccccc23)ccc1F)N1CCN(C(=O)C2CC2)CC1.O=C(c1cc(Cc2n[nH]c(=O)c3ccccc23)ccc1F)N1CCN(C(=O)C2CC2)CC1 [2:1 olaparib oxalic acid cocrystal]	stable to polymorph conversion or hydrate formation	does not show any polymorphic form conversion or hydrate formation	

Continued, compound first:

SMILES	Appearance [2]	XRPD analysis [2]	Appearance [3]	XRPD analysis [3]	moisture reversibly adsorbed (GVS) [4]	XRPD analysis post GVS analysis [4]	stability to polymorph conversion or hydrate formation on long storage (summary of Tables 4 and 5) [3]	polymorphic form conversion or hydrate formation under raised relative humidity levels ([4]; 0-90% RH, 25° C.)	other results
NC(N)=O.O=C(c1cc(Cc2n[nH]c(=O)c3ccccc23)ccc1F)N1CCN(C(=O)C2CC2)CC1 [1:1 olaparib urea cocrystal]									level of dissolution compared with pure crystalline olaparib form A [1]: only achieves the same level of dissolution as pure crystalline olaparib form A
O=C(c1cc(Cc2n[nH]c(=O)c3ccccc23)ccc1F)N1CCN(C(=O)C2CC2)CC1 [polymorph A]									aqueous solubility [5]: ~100 µg/mL (≈ 230 µM)
O=C(c1cc(Cc2n[nH]c(=O)c3ccccc23)ccc1F)N1CCN(C(=O)C2CC2)CC1 [olaparib, 4-[(3-{[4-(cyclopropylcarbonyl)piperazin-1-yl]carbonyl}-4-fluorophenyl)methyl]phthalazin-1(2H)-one]									BCS class [6]: class IV; also recorded: class 4

Reference: patent US12012386B2, “Olaparib oxalic acid cocrystals and their pharmaceutical use” (NUFORMIX TECHNOLOGIES LIMITED, priority 2020, dated 2024)
